Like-named read-outs stand apart in the source and are kept apart here.
Key:
Type in all cases: cell-based
human TAAR1 receptors = target: T1, human TAAR1 receptors (Homo sapiens, UniProt Q96RJ0); assay: TAAR1 Agonism Assay: cAMP HTRF assay for Gs coupled receptor TAAR1 (Euroscreen FAST-0987C); conditions: CHO-K1 cells expressing human TAAR1, cAMP HTRF
T1 construct: host or cells: CHO-K1
T1 sequence (Q96RJ0 1-339): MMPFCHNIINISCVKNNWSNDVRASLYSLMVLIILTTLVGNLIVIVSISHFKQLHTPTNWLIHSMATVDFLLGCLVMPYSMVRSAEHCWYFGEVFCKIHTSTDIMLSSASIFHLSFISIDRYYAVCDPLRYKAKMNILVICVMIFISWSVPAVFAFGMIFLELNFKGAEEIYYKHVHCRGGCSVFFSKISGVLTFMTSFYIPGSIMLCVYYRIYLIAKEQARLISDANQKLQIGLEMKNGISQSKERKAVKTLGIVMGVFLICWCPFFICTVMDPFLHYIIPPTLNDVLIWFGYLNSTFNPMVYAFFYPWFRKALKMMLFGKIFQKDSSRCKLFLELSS
Outline: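 cAMP accumulation detected by HTRF fluorescence ratio, reagents added in lysis buffer and incubated 1 h at about room temperature. Beforehand, cells (about 3,000 per well) sat with test compound at ten concentrations from 0.3 to 10,000 nM in duplicate for roughly 30 min at about room temperature; tyramine dose-response run alongside.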

human 5-HT2A receptor = target: T2, human 5-HT2A receptor (Homo sapiens, UniProt P28223); assay: 5HT2A Antagonism Assay (Euroscreen FAST-05051), IP-One HTRF
T2 construct: host or cells: CHO-K1
T2 sequence (P28223 whole entry): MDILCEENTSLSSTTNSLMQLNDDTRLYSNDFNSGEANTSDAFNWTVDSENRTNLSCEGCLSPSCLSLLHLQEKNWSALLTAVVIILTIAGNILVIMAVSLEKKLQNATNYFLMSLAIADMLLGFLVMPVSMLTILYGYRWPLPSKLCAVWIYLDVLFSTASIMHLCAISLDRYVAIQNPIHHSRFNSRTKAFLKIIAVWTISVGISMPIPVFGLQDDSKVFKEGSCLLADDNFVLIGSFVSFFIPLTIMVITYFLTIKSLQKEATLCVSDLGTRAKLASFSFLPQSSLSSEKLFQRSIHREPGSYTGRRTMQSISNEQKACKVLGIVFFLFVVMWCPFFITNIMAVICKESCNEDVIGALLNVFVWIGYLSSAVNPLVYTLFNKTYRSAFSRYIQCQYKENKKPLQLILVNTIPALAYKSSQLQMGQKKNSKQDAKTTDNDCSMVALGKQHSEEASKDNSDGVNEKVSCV
Outline: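 CHO-K1 cells expressing receptor, 20,000/well, co-incubated with test compound and reference agonist at its EC80 for 60 min at 37 °C. IP1 accumulation read by HTRF after ~1 h detection at room temperature. Compounds tested in duplicate at 0.3–10,000 nM.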

human 5-HT7 receptor = target: T3, human 5-HT7 receptor (Homo sapiens, UniProt P34969); assay: 5HT7 Antagonism Assay (Euroscreen FAST-0499C), cAMP HTRF; conditions: CHO-K1 cells expressing human 5-HT7, reference agonist at EC80, cAMP HTRF
T3 construct: host or cells: CHO-K1
T3 sequence (P34969 whole entry): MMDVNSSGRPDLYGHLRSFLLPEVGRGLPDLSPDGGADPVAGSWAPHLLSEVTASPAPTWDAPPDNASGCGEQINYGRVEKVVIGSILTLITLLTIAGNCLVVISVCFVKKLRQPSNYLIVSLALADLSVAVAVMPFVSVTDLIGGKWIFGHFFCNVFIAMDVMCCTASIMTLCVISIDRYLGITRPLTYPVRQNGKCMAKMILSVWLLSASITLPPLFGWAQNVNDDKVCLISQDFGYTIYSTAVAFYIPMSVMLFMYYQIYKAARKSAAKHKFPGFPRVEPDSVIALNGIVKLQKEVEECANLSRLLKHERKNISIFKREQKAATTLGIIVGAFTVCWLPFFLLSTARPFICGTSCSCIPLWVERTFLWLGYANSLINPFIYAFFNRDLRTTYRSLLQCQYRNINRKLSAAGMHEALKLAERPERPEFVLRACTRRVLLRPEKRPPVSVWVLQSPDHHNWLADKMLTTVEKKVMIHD
Outline: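 CHO-K1 cells expressing human 5-HT7, 3000 per well in Krebs-Ringer HEPES with 1 mM IBMX, were exposed for 30 minutes at room temperature to compound plus reference agonist at its EC80. cAMP was read by HTRF after 1 hour; compounds were tested in duplicate from 0.3 to 10,000 nM.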

[1] = 5-HT2A (IC50), CHO-K1 cells expressing human 5-HT2A, reference agonist at EC80, IP-One
[2] = read-out: 5-HT2A (IC50), CHO-K1 cells expressing human 5-HT2A, reference agonist at EC80, IP-One
[3] = CHO-K1 cells expressing human 5-HT2A, reference agonist at EC80, IP-One, read-out: 5-HT2A (IC50)

SMILES	EC50 (human TAAR1 receptors) [nM]	IC50 (human 5-HT2A receptor; [1]) [nM]	IC50 (human 5-HT7 receptor) [nM]	IC50 (human 5-HT2A receptor; [2]) [nM]	IC50 (human 5-HT2A receptor; [3]) [nM]
CNCC1Cc2cc(C)ccc2Oc2cccnc21 (single isomer, unassigned) [Compound 130, (S*)—N-methyl-1-(8-methyl-10,11-dihydrobenzo[6,7]oxepino[3,2-b]pyridin-11-yl)methanamine]	< 1000	< 1000	1000 to 10000	–	–
CNCC1Cc2cc(C)ccc2Oc2cccnc21 (single isomer, unassigned) [Compound 131, (R*)—N-methyl-1-(8-methyl-10,11-dihydrobenzo[6,7]oxepino[3,2-b]pyridin-11-yl)methanamine]	< 1000	–	< 1000	< 1000	–
Cc1ccc2c(c1)Oc1cccnc1C(CN)C2 (single isomer, unassigned) [Compound 132, (S*)-(7-methyl-10,11-dihydrobenzo[6,7]oxepino[3,2-b]pyridin-11-yl)methanamine]	< 1000	> 10000	≥ 10000	–	–
Cc1ccc2c(c1)Oc1cccnc1C(CN)C2 (single isomer, unassigned) [Compound 133, (R*)-(7-methyl-10,11-dihydrobenzo[6,7]oxepino[3,2-b]pyridin-11-yl)methanamine]	< 1000	1000 to 10000	≥ 10000	–	–
CNCC1Cc2ccc(C)cc2Oc2cccnc21 (single isomer, unassigned) [Compound 134, (S*)—N-methyl-1-(7-methyl-10,11-dihydrobenzo[6,7]-oxepino[3,2-b]pyridin-11-yl)methanamine]	< 1000	< 1000	1000 to 10000	–	–
CNCC1Cc2ccc(C)cc2Oc2cccnc21 (single isomer, unassigned) [Compound 135, (R*)—N-methyl-1-(7-methyl-10,11-dihydrobenzo[6,7]oxepino[3,2-b]pyridin-11-yl)methanamine]	< 1000	–	1000 to 10000	< 1000	–
NCC1Cc2c(F)cccc2Oc2cccnc21 (single isomer, unassigned) [Compound 136, (S*)-(9-fluoro-10,11-dihydrobenzo[6,7]oxepino[3,2-b]pyridin-11-yl)methanamine]	< 1000	1000 to 10000	≥ 10000	–	–
NCC1Cc2c(F)cccc2Oc2cccnc21 (single isomer, unassigned) [Compound 137, (R*)-(9-fluoro-10,11-dihydrobenzo[6,7]oxepino[3,2-b]pyridin-11-yl)methanamine]	< 1000	> 10000	≥ 10000	–	–
CNCC1Cc2c(F)cccc2Oc2cccnc21 (single isomer, unassigned) [Compound 138, (S*)-1-(9-fluoro-10,11-dihydrobenzo[6,7]oxepino[3,2-b]pyridin-11-yl)-N-methylmethanamine]	< 1000	< 1000	≥ 10000	–	–
Cc1cccc2c1CC(CN)c1ncccc1O2 (single isomer, unassigned) [Compound 140, (S*)-(9-methyl-10,11-dihydrobenzo[6,7]oxepino[3,2-b]pyridin-11-yl)methanamine]	< 1000	> 10000	≥ 10000	–	–
Cc1cccc2c1CC(CN)c1ncccc1O2 (single isomer, unassigned) [Compound 141, (R*)-(9-methyl-10,11-dihydrobenzo[6,7]oxepino[3,2-b]pyridin-11-yl)methanamine]	< 1000	< 1000	≥ 10000	–	–
CNCC1Cc2c(C)cccc2Oc2cccnc21 (single isomer, unassigned) [Compound 143, (R*)-(9-methyl-10,11-dihydrobenzo[6,7]oxepino[3,2-b]pyridin-11-yl)-N-methylmethanamine]	< 1000	< 1000	≥ 10000	–	–
NCC1Cc2c(Cl)cccc2Oc2cccnc21 (single isomer, unassigned) [Compound 144, (S*)-(9-chloro-10,11-dihydrobenzo[6,7]oxepino[3,2-b]pyridin-11-yl)methanamine]	< 1000	< 1000	≥ 10000	–	–
NCC1Cc2c(Cl)cccc2Oc2cccnc21 (single isomer, unassigned) [Compound 145, (R*)-(9-chloro-10,11-dihydrobenzo[6,7]oxepino[3,2-b]pyridin-11-yl)methanamine]	< 1000	–	≥ 10000	< 1000	–
CNCC1Cc2c(Cl)cccc2Oc2cccnc21 (single isomer, unassigned) [Compound 147, (R*)-(9-chloro-10,11-dihydrobenzo[6,7]oxepino[3,2-b]pyridin-11-yl)-N-methylmethanamine]	< 1000	< 1000	≥ 10000	–	–
Cc1ccc2c(n1)C(CN)Cc1ccccc1O2 (single isomer, unassigned) [Compound 149, (R*)-(2-methyl-10,11-dihydrobenzo[6,7]oxepino[3,2-b]pyridin-11-yl)methanamine]	< 1000	< 1000	≥ 10000	–	–
CNCC1Cc2ccccc2Oc2ccc(C)nc21 (single isomer, unassigned) [Compound 150, (R*)-(2-methyl-10,11-dihydrobenzo[6,7]oxepino[3,2-b]pyridin-11-yl)-N-methylmethanamine]	< 1000	< 1000	1000 to 10000	–	–
CCc1ccc2c(n1)C(CN)Cc1ccccc1O2 (single isomer, unassigned) [Compound 151, (R*)-(2-ethyl-10,11-dihydrobenzo[6,7]oxepino[3,2-b]pyridin-11-yl)methanamine]	< 1000	< 1000	≥ 10000	–	–
CCc1ccc2c(n1)C(CNC)Cc1ccccc1O2 (single isomer, unassigned) [Compound 152, (R*)-(2-ethyl-10,11-dihydrobenzo[6,7]oxepino[3,2-b]pyridin-11-yl)-N-methylmethanamine]	< 1000	< 1000	1000 to 10000	–	–
NCC1Cc2c(F)cncc2Oc2ccccc21 (single isomer, unassigned) [Compound 153, (R*)-(4-fluoro-5,6-dihydrobenzo[6,7]oxepino[2,3-c]pyridin-6-yl)methanamine]	< 1000	< 1000	≥ 10000	–	–
NCC1Cc2c(F)cncc2Oc2ccccc21 (single isomer, unassigned) [Compound 154, (S*)-(4-fluoro-5,6-dihydrobenzo[6,7]oxepino[2,3-c]pyridin-6-yl)methanamine]	> 10000	1000 to 10000	≥ 10000	–	–
NCC1Cc2ncccc2Oc2cccc(F)c21 (single isomer, unassigned) [Compound 156, (S*)-(9-fluoro-10,11-dihydrobenzo[6,7]oxepino[3,2-b]pyridin-10-yl)methanamine]	< 1000	> 10000	≥ 10000	–	–
CNCC1Cc2ncccc2Oc2cccc(F)c21 (single isomer, unassigned) [Compound 158, (S*)-(9-fluoro-10,11-dihydrobenzo[6,7]oxepino[3,2-b]pyridin-10-yl)-N-methylmethanamine]	1000 to 10000	–	≥ 10000	–	> 10000
N#Cc1ccc2c(c1)C(CN)Cc1ncccc1O2 (single isomer, unassigned) [Compound 159, (R*)-10-(aminomethyl)-10,11-dihydrobenzo[6,7]-oxepino[3,2-b]pyridine-8-carbonitrile]	1000 to 10000	> 10000	≥ 10000	–	–
N#Cc1ccc2c(c1)C(CN)Cc1ncccc1O2 (single isomer, unassigned) [Compound 160, (S*)-10-(aminomethyl)-10,11-dihydrobenzo[6,7]oxepino[3,2-b]pyridine-8-carbonitrile]	< 1000	< 1000	1000 to 10000	–	–
CNCC1Cc2ncccc2Oc2ccc(C#N)cc21 (single isomer, unassigned) [Compound 161, (R*)-10-((methylamino)methyl)-10,11-dihydrobenzo[6,7]oxepino[3,2-b]pyridine-8-carbonitrile]	> 10000	–	≥ 10000	–	1000 to 10000
CNCC1Cc2ncccc2Oc2ccc(C#N)cc21 (single isomer, unassigned) [Compound 162, (S*)-10-((methylamino)methyl)-10,11-dihydrobenzo[6,7]oxepino[3,2-b]pyridine-8-carbonitrile]	> 10000	–	≥ 10000	–	1000 to 10000
NCC1Cc2ncccc2Oc2ccc(F)cc21 (single isomer, unassigned) [Compound 163, (R*)-(8-fluoro-10,11-dihydrobenzo[6,7]oxepino[3,2-b]pyridin-10-yl)methanamine]	1000 to 10000	1000 to 10000	≥ 10000	–	–

Source: patent US20240245658A1, “TAAR1 AND SEROTONIN MODULATORS, AND PHARMACEUTICAL COMPOSITIONS, AND METHODS OF USE THEREOF” (Sunovion Pharmaceuticals Inc., priority 2021, published 2024)
